Results on one compound are retold here after PMC10840338, “High efficacy of the F-ATP synthase inhibitor TBAJ-5307 against nontuberculous mycobacteria in vitro and in vivo” (The Journal of Biological Chemistry, 2024).

SMILES strings stand for the structures.

A word on the IC50: it is the concentration needed to halve the response being measured. Read a high IC50 as lower potency.

In the assay the target is T1, F1FO-ATP synthase (FO domain, subunit c ring with subunit a) (Mycobacteroides abscessus, UniProt B1MLV6+B1MLV7).
T1 construct: gene atpE; native F1FO-ATP synthase in inverted-membrane vesicles of M. subsp. abscessus R variant; with subunit a (atpB); whole complex α3:β3:γ:ε:b-δ:b’:a:c9
The assay can be described thus: ATP synthesis inhibition in inverted-membrane vesicles (luminescence). The format is biochemical.

Turning to `COc1cc([C@](O)(CCN(C)C)[C@@H](c2cc3cc(Br)ccc3nc2OC)c2ccnc(OC)c2OC)cc(OC)n1` [TBAJ-5307], the IC50 worked out at 1.4 nM.
